Laboratory results taken from US9555038B2, “Heterocycle-substituted tetracyclic compounds and methods of use thereof for the treatment of viral diseases” (Merck Sharp & Dohme Corp., priority 2013, dated 2017).
pIC50: −log10 of the molar value. Like-named read-outs stand apart in the source and are kept apart here.

What was measured:
[1] = tested on: HCV replicon 1AQ30D; assay: Cell-based HCV Replicon Assay B, replicon 1AQ30D
Procedure, shortened: (§1)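 Replicon cells seeded in 5% FBS; compounds added 24 h later, then 3 days' incubation. Replicon RNA quantified by real-time RT-PCR with genotype-specific primers/probes (NS5B amplicon for 1b). EC50 = concentration raising CT by 1 over projected baseline.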

[2] = tested on: HCV replicon 1A; assay: Cell-based HCV Replicon Assay A, replicon 1A
Procedure, shortened: (§2)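 Replicon cells were seeded at 2000 cells/well with test compound in 10 serial dilutions, starting at 333.3 nM to 1.667 nM, in 0.5% DMSO and 5% FBS. On day 3, cells were washed and lysed, and replicon RNA was quantified by multiplex TaqMan RT-PCR normalised to cyclophilin.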

[3] = tested on: HCV replicon 2B; assay: Cell-based HCV Replicon Assay A, replicon 2B
Procedure, shortened: as §2

[4] = tested on: HCV replicon 1B; assay: Cell-based HCV Replicon Assay B, replicon 1B
Procedure, shortened: as §1

[5] = tested on: HCV replicon 1AY93H; assay: Cell-based HCV Replicon Assay A, replicon 1AY93H
Procedure, shortened: as §2

[6] = replicon 1AQ30D, read-out: 1A Q30D IC50
[7] = replicon 1AY93H, read-out: 1A Y93H IC50
[8] = read-out: 1A Q30D IC50, replicon 1AQ30D
[9] = read-out: 1A Y93H IC50, replicon 1AY93H

Compound	pIC50 [1, 6]	pIC50 [2]	pIC50 ([3]; replicon 2B, read-out: 2B IC50)	pIC50 [4]	pIC50 [5, 7]	pIC50 [1, 8]	pIC50 ([2]; Hepatitis C virus)	pIC50 ([3]; read-out: 2B IC50, replicon 2B)	pIC50 ([4]; Hepatitis C virus)	pIC50 [5, 9]	IC50 ([1]; Hepatitis C virus, read-out: 1A Q30D IC50 (nM), replicon 1AQ30D) [nM]	IC50 ([3]; Hepatitis C virus, read-out: 2B IC50 (nM), replicon 2B) [nM]	IC50 ([5]; Hepatitis C virus, read-out: 1A Y93H IC50 (nM), replicon 1AY93H) [nM]
COC(=O)NC(C(=O)N1CCCC1c1ncc(-c2cc(F)c3c(c2)OC(c2cnc(C4CCCC4)s2)n2c-3cc3cc(-c4cnc(C5CC6CC6N5C(=O)C(NC(=O)OC)C(C)C)[nH]4)ccc32)[nH]1)C(C)C (single isomer, unassigned) [Compound 320]	9.23	11.77	9.69	11.52	10.44								
COC(=O)NC(C(=O)N1[C@@H]2C[C@@H]2C[C@H]1c1ncc(-c2ccc3c(c2)cc2n3C(c3cnc(C4CCCC4)s3)Oc3cc(-c4cnc([C@@H]5CCCN5C(=O)[C@@H](NC(=O)OC)C(C)C)[nH]4)cc(F)c3-2)[nH]1)C1CCOC(C)(C)C1 (single isomer, unassigned) [Compound 321]						11.15	11.54	11.40	11.52	11.72			
COC(=O)NC(C(=O)N1[C@@H]2C[C@@H]2C[C@H]1c1ncc(-c2ccc3c(c2)cc2n3C(c3cnc(C4CCCC4)s3)Oc3cc(-c4cnc([C@@H]5CCCN5C(=O)[C@@H](NC(=O)OC)C(C)C)[nH]4)cc(F)c3-2)[nH]1)C1CCOC(C)(C)C1 (single isomer, unassigned) [Compound 322]		11.57		11.40		9.49		10.24		10.29			
COC(=O)N[C@H](C(=O)N1CCC[C@H]1c1ncc(-c2cc(F)c3c(c2)OC(c2cnc(-c4ccncc4)s2)n2c-3cc3cc(-c4cnc([C@@H]5CCCN5C(=O)[C@@H](NC(=O)OC)C(C)C)[nH]4)ccc32)[nH]1)C(C)C (single isomer, unassigned) [Compound 409]							10.97		11.15		5.1	1.28	0.577
COC(=O)NC(C(=O)N1[C@@H]2C[C@@H]2C[C@H]1c1ncc(-c2ccc3c(c2)cc2n3C(c3cnc(CC(C)C)s3)Oc3cc(-c4cnc([C@@H]5CCCN5C(=O)[C@@H](NC(=O)OC)C(C)C)[nH]4)cc(F)c3-2)[nH]1)C1CCOC(C)(C)C1 (single isomer, unassigned) [Compound 437]	9.55	11.66	9.68	11.51	9.75								
COC(=O)NC(C(=O)N1[C@@H]2C[C@@H]2C[C@H]1c1ncc(-c2ccc3c(c2)cc2n3C(c3cnc(CC(C)C)s3)Oc3cc(-c4cnc([C@@H]5CCCN5C(=O)[C@@H](NC(=O)OC)C(C)C)[nH]4)cc(F)c3-2)[nH]1)C1CCOC(C)(C)C1 (single isomer, unassigned) [Compound 438]	10.52	11.44	11.22	11.43	11.40								
COC(=O)NC(C(=O)N1[C@@H]2C[C@@H]2C[C@H]1c1ncc(-c2ccc3c(c2)cc2n3C(c3cnc(CC(C)C)s3)Oc3cc(-c4cnc([C@@H]5CCCN5C(=O)[C@@H](NC(=O)OC)C(C)C)[nH]4)cc(F)c3-2)[nH]1)C1CCOC(C)(C)C1 (single isomer, unassigned) [Compound 439]	10.74	11.57	11.22	11.68	11.40								
COC(=O)NC(C(=O)N1[C@@H]2C[C@@H]2C[C@H]1c1ncc(-c2ccc3c(c2)cc2n3C(c3cnc(CC(C)C)s3)Oc3cc(-c4cnc([C@@H]5CCCN5C(=O)[C@@H](NC(=O)OC)C(C)C)[nH]4)cc(F)c3-2)[nH]1)C1C[C@@H](C)O[C@@H](C)C1 (single isomer, unassigned) [Compound 440]						9.01	11.64	9.49	11.44	9.84			
COC(=O)NC(C(=O)N1[C@@H]2C[C@@H]2C[C@H]1c1ncc(-c2ccc3c(c2)cc2n3C(c3cnc(CC(C)C)s3)Oc3cc(-c4cnc([C@@H]5CCCN5C(=O)[C@@H](NC(=O)OC)C(C)C)[nH]4)cc(F)c3-2)[nH]1)C1C[C@@H](C)O[C@@H](C)C1 (single isomer, unassigned) [Compound 441]		11.60		11.47		10.96		11.22		11.52			
CCC(CC)c1ncc(C2Oc3cc(-c4cnc([C@@H]5CCCN5C(=O)[C@@H](NC(=O)OC)C(C)C)[nH]4)cc(F)c3-c3cc4cc(-c5cnc([C@@H]6CCCN6C(=O)C(NC(=O)OC)C6CCOC(C)(C)C6)[nH]5)ccc4n32)s1 (single isomer, unassigned) [Compound 444]						10.42	11.66	11.15	11.42	11.30			
